# Read-outs that look alike come from different tables or passages of the source.
# Key:
# [1] = target: T1, human serotonin transporter (Homo sapiens, UniProt P31645); assay: Cerep broad selectivity radioligand binding panel
# T1 construct: Cerep
# Method: Broad selectivity was assessed at Cerep (Celle l’ Evescault, France), as described in the Cerep catalog, though the determination of the effect of PMP-311 and PMP-072 in in vitro radioligand receptor binding assays with 52 different receptors, channels, and transporters. The specific ligand binding to the receptors is defined as the difference between the total binding, and the nonspecific binding determined in the presence of an excess of unlabelled ligand. The results are expressed as a percent of control specific binding and as the mean percent inhibition of control specific binding obtained in the presence of 10 μM PMP-311 and PMP-072. Individual and mean values are presented in the results section. The IC50 values (concentration causing a half-maximal inhibition of control specific binding) and Hill coefficients (nH) were determined by non-linear regression as described above.
# human α7 nAChR = target: T2, human α7 nAChR (Homo sapiens, UniProt P36544); assay: voltage-clamp electrophysiology in Xenopus oocytes; format: biochemical; settings: for agonist activity at α7 nAChR ion channel: Xenopus oocyte membrane current, control conditions
# T2 construct: expressed in transfected cells; host or cells: Xenopus laevis oocytes injected with cRNA; clones from Dr. Jon Lindstrom (α7) and Dr. Millet Treinin (RIC-3)
# Method: (§1) Human nAChR receptor clones were obtained from Dr. Jon Lindstrom (University of Pennsylvania, Philadelphia, PA). The RIC-3 clone was obtained from Dr. Millet Treinin (Hebrew University, Jerusalem, Israel). Subsequent to linearization and purification of cloned cDNAs, RNA transcripts were prepared in vitro using the appropriate mMessage Machine kit from Ambion Inc. (Austin, TX).
# The preparation of Xenopus laevis oocytes for RNA expression was conducted as previously described. Stage 5 oocytes were isolated and injected with […] (5–20 ng) of each subunit cRNAs. Recordings were conducted 2–5 days after injection. RNA coding for human α7 nAChR was routinely co-injected with the cDNA for human RIC-3, an accessory protein that improves and accelerates α7 nAChR expression without affecting the pharmacological properties of the receptors.
# Experiments were conducted using OpusXpress6000A (Molecular Devices, Union City, CA) as described before. ACh applications were 12 seconds in duration.
# Each oocyte received two initial control applications of 300 μM ACh, followed by the experimental drug application, and subsequent control application of 300 μM ACh, unless otherwise indicated. Responses to experimental drug applications were determined relative to the preceding ACh control responses in order to normalize the data, compensating for the varying levels of channel expression among the oocytes. Responses for α7 nAChR were calculated as net charge, since peak currents inaccurately report the agonist concentration dependence of α7 nAChR-mediated responses. For experiments measuring the effects of ACh and the experimental compounds on allosterically modulated receptors, following the acquisition of baseline responses, cells were given a 60 s application of 300 μM PNU-120596. […] For all experiments, means and standard error of the mean (SEM) were calculated from the normalized responses of at least four oocytes for each experimental concentration, plotted using Kaleidagraph 3.52 (Synergy Software, Reading, PA), and curves were generated from the Hill equation: Response=IMax[agonist]^n/[agonist]^n+(EC50)^n where Imax denotes the maximal response for a particular agonist/subunit combination, and n represents the Hill coefficient. Imax, n, and the EC50 were all unconstrained for the fitting procedures except in the case of the ACh concentration-response curves.
# α4β2 nAChR = target: T3, α4β2 nAChR (Homo sapiens, UniProt P17787+P43681); assay: ion channel assay on α4β2 nAChR in Xenopus oocytes; format: biochemical; settings: data not shown
# T3 construct: expressed in transfected cells; host or cells: Xenopus laevis oocytes injected with subunit cRNAs; clones from Dr. Jon Lindstrom
# Method: as §1
# The preparation of Xenopus laevis oocytes for RNA expression was conducted as previously described. Stage 5 oocytes were isolated and injected with […] (5–20 ng) of each subunit cRNAs. Recordings were conducted 2–5 days after injection. […]
# Each oocyte received two initial control applications of 300 μM ACh, followed by the experimental drug application, and subsequent control application of 300 μM ACh, unless otherwise indicated. Responses to experimental drug applications were determined relative to the preceding ACh control responses in order to normalize the data, compensating for the varying levels of channel expression among the oocytes. Responses for α7 nAChR were calculated as net charge, since peak currents inaccurately report the agonist concentration dependence of α7 nAChR-mediated responses. […]
# [2] = tested on: T4, human α7 nAChR primed with PNU-120596; assay: electrophysiology of oocytes primed with PNU-120596; format: biochemical; settings: after 60 s priming with 300 μM PNU-120596; PMP-311 1 μM, PMP-072 10 μM, MLA 10 μM
# T4 construct: expressed in transfected cells; host or cells: Xenopus laevis oocytes injected with cRNA; clones from Dr. Jon Lindstrom (α7) and Dr. Millet Treinin (RIC-3)
# Method: Each oocyte received two initial control applications of 300 μM ACh, followed by the experimental drug application, and subsequent control application of 300 μM ACh, unless otherwise indicated. Responses to experimental drug applications were determined relative to the preceding ACh control responses in order to normalize the data, compensating for the varying levels of channel expression among the oocytes. Responses for α7 nAChR were calculated as net charge, since peak currents inaccurately report the agonist concentration dependence of α7 nAChR-mediated responses. […] Imax, n, and the EC50 were all unconstrained for the fitting procedures except in the case of the ACh concentration-response curves.
# T2 sequence (P36544 23-502): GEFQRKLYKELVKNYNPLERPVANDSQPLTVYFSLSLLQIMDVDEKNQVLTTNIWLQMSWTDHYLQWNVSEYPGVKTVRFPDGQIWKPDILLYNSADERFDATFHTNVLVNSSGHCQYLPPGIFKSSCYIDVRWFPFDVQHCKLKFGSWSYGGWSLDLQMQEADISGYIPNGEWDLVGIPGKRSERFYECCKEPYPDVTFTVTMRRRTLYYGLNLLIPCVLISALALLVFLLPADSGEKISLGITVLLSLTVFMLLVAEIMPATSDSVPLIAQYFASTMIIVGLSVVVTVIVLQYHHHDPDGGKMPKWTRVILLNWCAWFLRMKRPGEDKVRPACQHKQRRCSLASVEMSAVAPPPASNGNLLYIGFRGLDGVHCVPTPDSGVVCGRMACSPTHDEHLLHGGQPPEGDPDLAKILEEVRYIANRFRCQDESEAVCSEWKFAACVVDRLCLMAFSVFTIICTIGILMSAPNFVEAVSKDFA
# T3 sequence (P43681 29-627 limits assumed): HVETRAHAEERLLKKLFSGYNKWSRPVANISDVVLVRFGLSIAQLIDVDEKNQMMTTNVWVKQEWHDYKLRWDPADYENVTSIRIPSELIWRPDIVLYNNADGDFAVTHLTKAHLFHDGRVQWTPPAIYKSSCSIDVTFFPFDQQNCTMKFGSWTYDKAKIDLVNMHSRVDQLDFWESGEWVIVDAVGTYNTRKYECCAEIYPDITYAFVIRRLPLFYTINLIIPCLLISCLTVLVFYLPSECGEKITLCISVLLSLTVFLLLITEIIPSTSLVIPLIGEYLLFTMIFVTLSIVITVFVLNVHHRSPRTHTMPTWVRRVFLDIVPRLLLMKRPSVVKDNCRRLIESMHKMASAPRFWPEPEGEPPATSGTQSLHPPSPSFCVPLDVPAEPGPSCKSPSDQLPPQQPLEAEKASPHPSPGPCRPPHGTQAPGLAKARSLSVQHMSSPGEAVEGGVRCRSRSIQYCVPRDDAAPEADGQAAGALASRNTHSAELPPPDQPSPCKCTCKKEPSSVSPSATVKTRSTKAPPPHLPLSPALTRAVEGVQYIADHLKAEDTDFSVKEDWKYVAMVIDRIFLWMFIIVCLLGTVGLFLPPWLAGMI
# T3 sequence (P17787 26-502): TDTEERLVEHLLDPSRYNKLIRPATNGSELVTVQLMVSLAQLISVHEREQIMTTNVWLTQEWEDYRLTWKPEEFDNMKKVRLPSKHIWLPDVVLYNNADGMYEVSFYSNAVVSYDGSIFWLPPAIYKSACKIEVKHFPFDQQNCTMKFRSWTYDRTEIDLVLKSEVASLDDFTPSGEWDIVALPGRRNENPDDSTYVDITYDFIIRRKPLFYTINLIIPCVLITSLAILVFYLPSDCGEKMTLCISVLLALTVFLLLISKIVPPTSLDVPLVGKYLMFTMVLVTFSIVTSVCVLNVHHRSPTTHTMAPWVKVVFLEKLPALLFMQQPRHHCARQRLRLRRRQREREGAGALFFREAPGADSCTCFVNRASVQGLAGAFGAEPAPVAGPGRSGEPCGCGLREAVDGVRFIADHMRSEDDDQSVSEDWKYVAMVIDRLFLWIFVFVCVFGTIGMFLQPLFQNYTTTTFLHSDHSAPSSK
# T1 sequence (P31645 whole entry): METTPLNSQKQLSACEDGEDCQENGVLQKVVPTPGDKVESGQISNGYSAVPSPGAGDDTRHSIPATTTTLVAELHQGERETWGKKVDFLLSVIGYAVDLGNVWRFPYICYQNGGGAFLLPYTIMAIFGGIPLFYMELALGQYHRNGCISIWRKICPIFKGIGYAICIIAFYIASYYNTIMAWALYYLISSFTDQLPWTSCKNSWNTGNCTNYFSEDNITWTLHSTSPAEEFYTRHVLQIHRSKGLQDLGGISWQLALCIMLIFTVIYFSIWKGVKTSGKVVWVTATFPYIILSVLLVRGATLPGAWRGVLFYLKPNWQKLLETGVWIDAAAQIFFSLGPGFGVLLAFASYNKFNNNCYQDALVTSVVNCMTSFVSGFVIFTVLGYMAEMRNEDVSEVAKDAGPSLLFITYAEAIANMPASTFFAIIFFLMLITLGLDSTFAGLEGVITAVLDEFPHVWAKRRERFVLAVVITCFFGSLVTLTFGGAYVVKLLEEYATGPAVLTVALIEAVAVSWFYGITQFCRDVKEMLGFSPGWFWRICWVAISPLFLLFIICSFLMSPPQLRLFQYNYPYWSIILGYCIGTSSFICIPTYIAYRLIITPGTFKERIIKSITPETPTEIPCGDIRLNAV
smiles,measurement,setting,value
"c1cncc(OC[C@@H]2CNCCN2c2nc3ncccc3o2)c1 [PMP-311, (S)-2-(2-((Pyridin-3-yloxy)methyl)piperazin-1-yl)oxazolo[4,5-b]pyridine]",inhibition at 10 µM,[1]; 10 μM,72%
same,agonist activity at α7 nAChR ion channel,human α7 nAChR,elicited a typical inward current
same,EC50,"human α7 nAChR; Xenopus oocytes, read-out: EC50 of α7 nAChR activation",~200 nM
same,Emax,"human α7 nAChR; net charge, normalized to 300 μM ACh, read-out: maximum response compared to ACh",~85%
same,IC50,"α4β2 nAChR; read-out: IC50, antagonist of α4β2 nAChR",~20 nM
same,IC50,"α4β2 nAChR; ion channel assay, read-out: IC50, inhibition of α4β2 nAChR",< 1000 nM
"COc1ccc(NC(=O)N2CCNC[C@@H]2COc2cccnc2)cc1 [PMP-072, (R)-N-(4-methoxyphenyl)-2-((pyridin-3-yloxy)methyl)piperazine-1-carboxamide]",Ki,[1],1800 nM
same,agonist activity at α7 nAChR ion channel,human α7 nAChR,did not appear to be an agonist
same,IC50,"human α7 nAChR; co-applied with 60 μM ACh, read-out: IC50, antagonism of ACh-stimulated α7 nAChR channel activity",20 to 50 nM
same,ion channel response of PNU-120596 primed cells,[2],able to activate large ion channel currents

# Reference: PMC4305287, “Two Novel α7 Nicotinic Acetylcholine Receptor Ligands: In Vitro Properties and Their Efficacy in Collagen-Induced Arthritis in Mice” (PLoS ONE, 2015)
